One experiment deals with human sebocytes. Briefly: cells. As to conditions: read-out: % Inh Unknown lipid synthesis. In kind it is cell-based.
The subject of experiment [1] is human skin transplanted to the SCID mouse. Briefly: Sebum production: Human Skin-SCID Mouse Chimera Model. The format is in vivo. Particulars: for % Inh Squalene (Human Sebaceous Lipids) / % Inh Triglycerides (Human Sebaceous Lipids) / % Inh W/E (Human Sebaceous Lipids): 11 Day Treatment; for % Inh Cholesterol Ester, Lipid Accumulation / % Inh Cholesterol, Lipid Accumulation / % Inh Cholesterol, Sebaceous Lipid Synthesis / % Inh Squaline, Lipid Accumulation / % Inh Squaline, Sebaceous Lipid Synthesis / % Inh Triglycerides, Lipid Accumulation / % Inh Triglycerides, Sebaceous Lipid Synthesis / % Inh Wax Esters, Lipid Accumulation / % Inh Wax Esters, Sebaceous Lipid Synthesis: 30 Day Treatment. The source says:
C.B-17 scid/scid mice (Taconic, Germantown, N.Y.) were used for grafting at 5–6 weeks of age. Full thickness human facial skin was shaved to ˜0.4 mm using a Forman Dermatome. The skin shavings were washed 3 times in antibiotics and antimycotics (penicillin, streptomycin, fungizone) (Life technologies) in Dulbecco's Modified Eagle Medium (DMEM, Life Technologies). Eliptical skin ˜2.0–2.5×1.0–1.5 was grafted onto the prepared graft bed and sutured using 4.0 silk. During surgical procedures the mice were anaesthetized using a mixture of Ketaset (0.16 mg/g body weight) and Rompun (8.0 μg/g body weight).
It is well accepted that the wound healing process of the transplanted skin in the SCID mouse takes one month, at which time the human skin can be used for experimental purposes. […] Maximum size of the glands was observed 3 month post transplantation. The glands retained their capability to produce human specific sebum and the glandular tissue expressed human specific markers including MC5-R. Since glands reached their maximum size at 2–3 month post transplantation the effects of inhibitors of sebum secretion was tested at this point.
Mice at 2–3 month post transplantation with human facial skin were used for the studies. The graft area was treated with the test compound at the desired concentration(s) dissolved in polyethylene glycol-ethanol (20 μl/2 cm^2). Controls were treated with vehicle alone. The test compounds were applied daily, excluding weekends. Sebum secretion was determined using Sebutape at 15 days and 30 days following treatment.
The termination of the experiment was determined by preliminary clinical evaluation of sebum production using SEBUTAPE. At this time human skin grafts were excised and representative samples were collected for histological evaluation. More particularly, 2 mm punch biopsies were prepared and used for evaluation of lipid synthesis and total lipid accumulation in the treated tissues.
The collected—2 mm punch biopsies were placed individually into 96 well plates in Krebs buffer and labeled with 10 μCi of ^14C acetate for 3 hours. Following this labeling period the samples were washed in medium and 5 biopsies pooled, weighed, and used for lipid extraction. The lipid extraction and analysis by HPTLC was the same as described for tissue culture derived cells. […]

Experiment [2] addresses T1, melanocortin MC-4 receptor (Homo sapiens, UniProt P32245).
T1 construct: purchased Receptor Biology Inc
Nature of the experiment: MC-4 receptor binding (Filtration). As to conditions: cell prints its own unit nm in the Filtration (μM) column; read-out: IC50 MC-4 (Filtration). The procedure:
The procedures described above for the melanocortin MC-4 receptor were repeated for the melanocortin MC-3 receptor. Following the procedures described, representative compounds of the present invention were tested for binding in the MC-4 and/or MC-3 assay, as listed in Table 4.

Another experiment has as its system Hippocampal Cells. Nature of the experiment: Neurite Cell Outgrowth Assay, hippocampal cells. As to conditions: Rattus norvegicus; 50 nM; percent change over the vehicle response; NA = no change/not active. In kind it is cell-based. A digest of the protocol: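 Rat E18 hippocampal or cortical neurons plated at 30,000 cells/well, treated 24 h after plating with compound at 50 nM, refreshed on day 3. At one week, fixed and MAP-2 immunostained with FITC secondary, read by fluorescence; outgrowth given as percent change versus vehicle.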

[3] abbreviates: 30 days of topical treatment with 0.05% and 0.01% solution.

T1 sequence (P32245 whole entry): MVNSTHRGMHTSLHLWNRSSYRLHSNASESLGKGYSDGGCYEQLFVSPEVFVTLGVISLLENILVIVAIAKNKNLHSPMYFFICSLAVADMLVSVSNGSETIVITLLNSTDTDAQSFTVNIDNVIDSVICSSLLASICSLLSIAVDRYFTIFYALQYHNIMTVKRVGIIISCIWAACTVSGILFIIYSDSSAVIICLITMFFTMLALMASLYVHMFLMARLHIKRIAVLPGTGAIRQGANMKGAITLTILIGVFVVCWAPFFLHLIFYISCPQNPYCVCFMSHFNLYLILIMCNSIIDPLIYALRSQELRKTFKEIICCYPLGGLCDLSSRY

Take `COc1ccccc1-c1nc(Nc2ccccc2)s[n+]1-c1ccccc1OC.[Br-]` [Compound 74, 2-(2-methoxyphenyl)-3-(2-methoxyphenyl)-5-phenylamino-[1,2.4]thiadiazol-2-ium]: in the experiment on human sebocytes, the inhibition at 0.4 µM amounted to 75% and the inhibition at 0.6 µM worked out at 80%. Further, in experiment [1] (0.01% topical), the “% Inh Squalene (Human Sebaceous Lipids)” value came out at 0%; the “% Inh Triglycerides (Human Sebaceous Lipids)” value stood at 0%; the “% Inh W/E (Human Sebaceous Lipids)” value is on record as 25%; the “% Inh Cholesterol Ester, Lipid Accumulation” value stood at 44%. In addition, in experiment [1] (0.01% topical), the “% Inh Cholesterol, Lipid Accumulation” value stood at 33%; the “% Inh Cholesterol, Sebaceous Lipid Synthesis” value is given as 33%; the “% Inh Squaline, Lipid Accumulation” value is listed as 82%; the “% Inh Squaline, Sebaceous Lipid Synthesis” value was determined as 80%. Also, in experiment [1] (0.01% topical), the “% Inh Triglycerides, Lipid Accumulation” value turned out to be 75%; the “% Inh Triglycerides, Sebaceous Lipid Synthesis” value was 75%; the “% Inh Wax Esters, Lipid Accumulation” value is 86%; the “% Inh Wax Esters, Sebaceous Lipid Synthesis” value was found to be 86%. Also, in experiment [1] (0.05% topical), the “% Inh Cholesterol Ester, Lipid Accumulation” value is reported as 21%; the “% Inh Cholesterol, Lipid Accumulation” value came out at 82%; the “% Inh Cholesterol, Sebaceous Lipid Synthesis” value came to 82%; the “% Inh Squaline, Lipid Accumulation” value amounted to 73%. Moreover, in experiment [1] (0.05% topical), the “% Inh Squaline, Sebaceous Lipid Synthesis” value is recorded as 90%; the “% Inh Triglycerides, Lipid Accumulation” value was found to be 90%; the “% Inh Triglycerides, Sebaceous Lipid Synthesis” value is recorded as 90%; the “% Inh Wax Esters, Lipid Accumulation” value worked out at 93%. In addition, the “% Inh Wax Esters, Sebaceous Lipid Synthesis” value in experiment [1] (0.05% topical) is on record as 93%. For the same compound, in experiment [1] (0.1% topical), the “% Inh Squalene (Human Sebaceous Lipids)” value was 70%, the “% Inh Triglycerides (Human Sebaceous Lipids)” value is given as 50% and the “% Inh W/E (Human Sebaceous Lipids)” value was found to be 80%. In addition, in experiment [1] (0.5% topical), the “% Inh Squalene (Human Sebaceous Lipids)” value is on record as 0%, the “% Inh Triglycerides (Human Sebaceous Lipids)” value worked out at 0% and the “% Inh W/E (Human Sebaceous Lipids)” value is recorded as 10%. Also, in experiment [1] (setting [3]), the “de novo synthesis of sebaceous lipids” value is “significantly decreased” and the “total sebaceous lipid accumulation” value is given as “significantly decreased”. Moreover, the “down regulation of sebaceous lipids” value in experiment [1] (topical treatment for 15 days with 0.05% and 0.005% solutions) was “not sufficient to down regulate the lipids”. The “Visual evaluation of the sebaceous gland” value in experiment [1] (topical treatment with 0.1% solution) is “visible shrinkage of the sebaceous gland and down regulation of sebaceous lipids”.

`c1ccc(CNc2nc(-c3ccccc3)[n+](-c3ccccc3)s2)cc1` [Compound 84]: the IC50 in experiment [2] was determined as 0.082 µM.

With `COc1ccc(N(C)c2nc(-c3ccccc3)[n+](-c3ccc(C)cc3)s2)cc1` [Compound 50], the activation at 0.05 µM in the experiment with Hippocampal Cells was found to be 46%.

Values taken from patent publication US7049331B2, “1,2,4-thiadiazole derivatives as melanocortin receptor modulators” (Ortho-McNeil Pharmaceutical, Inc., priority 2001, dated 2006).
